Laboratory results as given in patent US5464754A, “Assay and substrate for arachidonoyl-specific phospholipase A2” (The Regents of the University of California, priority 1993, dated 1995).

Experiments:
cPLA enzyme [1] = test: Effect of solvent and diluent components on cPLA enzyme activity; assay type: biochemical, human
Protocol: The substrate diluent generally comprises any suitable assay buffer system, such as HEPES, Tris-HCL, Tris-maleate, glycine, or the like. […] A suitable diluent comprises about 25% -50% glycerol, and preferably about 30% glycerol.
The thiosubstrate diluent also comprises an amount of detergent sufficient to solubilize! the substrate. One suitable detergent is Triton-X 100. Triton-X 100 is preferably used at concentrations of about 1-5 mM with about 1-3 mM thiosubstrate.
The Ca^2+ can be provided by the addition of CaCl2 to the diluent, preferably at concentrations greater than 1 mM, and more preferably at a concentration of about 10 mM.
The effectiveness of a phospholipase A2 enzyme inhibitor can be measured by adding the inhibitor to the substrate solution prior to the incubation with enzyme. […] Therefore, approximately 10 μl inhibitor dissolved in DMSO can be added to 200 μl substrate solution prior to the addition of enzyme to test the effectiveness of the inhibitor against cPLA. […] Thus, appropriate blanks should be run under each condition tested.

[2] = system: cPLA2 (purified, recombinant human); test: Microtiterplate assay for cPLA2 using thioPC substrate; assay type: biochemical
Protocol: The enzyme activity of CPLA2 was assayed using a ThioPC/Triton X-100 substrate solution. An appropriate volume of ThioPC in chloroform solution was evaporated to dryness under a stream of N2. Triton X-100 (8 mM) in 2× assay buffer (160 mM HEPES, pH 7.4, 300 mM NaCl, 20 mM CaC2, 2 mg/ml BSA) was added to the dried lipid in one-half the desired final volume to give a 2-fold concentrated substrate solution. This solution was bath sonicated 1 min to loosen dried ThioPC from the walls of the vial and then probe sonicated On ice, 20 sec on, 20 sec off for 3 min. The solution was then warmed to 40° C. and warm glycerol equivalent to 30% of the final volume was added. The solution was then brought to the desired final volume with deionized H2 O. The final assay contained 2 mM ThioPC, 4 mM Triton! X-100 and 30% glycerol in 80 mM HEPES, pH 7.4, 150 mM NaCl, 10 mM CaCl2 and 1 mg/ml BSA.
The substrate was then aliquotted, in 200 μl increments, into the wells of a 96-well plate and equilibrated for 5 min at 37° C. To initiate the reaction, 500 ng cPLA2 (purified, recombinant human), in a 5 μl volume of 1× assay buffer, was added to the wells, the plate was shaken 20 seconds on high to mix, and then incubated for 60 min at 37° C. […]
After 60 min, 10 μl of a 25 mM DTNB/475 mM EGTA mixture was added to all substrate containing wells to quench the reaction and initiate the color development. […] After adding the DTNB/EGTA, the plate was once again shaken 20 sec on high and allowed to incubate for an additional 3 min to give the DTNB chromophore time to fully develop prior to reading the plate. The absorbance was measured using a dual wavelength option (405 nm -620 nm) to correct for light scattering. […] The average absorbance of the blanks was subtracted from that of the enzyme containing wells to correct for the absorbance due to the substrate, DTNB, and EGTA. The difference in absorbance was used to calculate enzyme activity. […] Specific activity was calculated using ε405 for DTNB of 12,800 M^- cm^-1 (Yu et al supra) and a path length of 0.47 cm for 215 μl final total volume. […]

cPLA enzyme [3] = test: Sensitivity of cPLA enzyme to thiol-sensitive reagents; assay type: biochemical, human; conditions: in the presence of DTNB (Ellman's reagent)
Protocol: The sPLA enzymes are very stable, containing 7 disulfide bonds. […] In contrast, cPLA is an intracellular enzyme and assays and purifications are often run in the presence of reduced thiols, such as 2-mercaptoethanol or dithiothreitol (Kramer et al., supra; Clark, J. D., et al., supra).
After an incubation period, the enzyme/substrate reaction is quenched by the addition of a quenching reagent and a thiol-sensitive reagent. As used herein, the term "quenching reagent" refers to any compound capable of stopping the enzymatic activity of phospholipase A2 enzyme. Suitable quenching reagents are Ca^2+ chelators such as ethylene glycol bis(oxyethylenenitrilo) tetraacetic acid (EGTA) and the like, or high concentrations of a detergent such as 30 mM Triton X-100. The thiol-sensitive reagent can be any reagent capable of releasing a chromophore such as DTNB or 4,4'-dithiodipyridine (DTP). DTNB is a preferred thiol-sensitive reagent because its chromophore can be detected at […], which is available to most microtiterplate readers.

## OCC(O)CO [glycerol]
cPLA enzyme [1]; about 70% glycerol, diluent too viscous
  effect of glycerol on enzyme activity: enzyme activity is increased
cPLA enzyme [1]; glycerol as component of substrate diluent
  effect of glycerol on enzyme activity: Enzyme activity increases

## C[S+](C)[O-] [DMSO]
cPLA enzyme [1]; DMSO:enzyme/substrate ratio of about 1:20
  effect of DMSO on enzyme activity: unaffected

## Triton X-100
cPLA enzyme [1]; Triton X-100 at about 1-5 mM with about 1-3 mM thiosubstrate
  effect of Triton X-100 on stability of cPLA activity: more stable

## CCCCC/C=C\C/C=C\C/C=C\C/C=C\CCCC(=O)S[C@H](COCCCCCCCCCCCCCCCC)COP(=O)([O-])OCC[N+](C)(C)C [thioPC, 1-hexadecyl-2-arachidonoylthio-2-deoxy-sn-glycero-3-phosphorylcholine]
[2]; 2 mM ThioPC, 4 mM Triton X-100, 30% glycerol, pH 7.4, 37° C., FIG. 3
  enzyme activity as a function of time: more linear phase: 5 to 60 min
[2]; 2 mM ThioPC, 4 mM Triton X-100, 30% glycerol, pH 7.4, 37° C., FIG. 3, short burst of activity
  enzyme activity as a function of time: burst phase: 5 min

## O=C(O)c1cc(SSc2ccc([N+](=O)[O-])c(C(=O)O)c2)ccc1[N+](=O)[O-] [DTNB, 5,5'-dithiobis(2-nitrobenzoic acid)]
cPLA enzyme [3]
  enzymatic activity of cPLA in the presence of thiol-sensitive reagent: enzymatic activity was lost

B1: cPLA: 85 kDa arachidonic acid specific enzyme; purified, recombinant human (protein, UniProt P47712 1-749, looked up)
Cytosolic phospholipase A2: MSFIDPYQHIIVEHQYSHKFTVVVLRATKVTKGAFGDMLDTPDPYVELFISTTPDSRKRTRHFNNDINPVWNETFEFILDPNQENVLEITLMDANYVMDETLGTATFTVSSMKVGEKKEVPFIFNQVTEMVLEMSLEVCSCPDLRFSMALCDQEKTFRQQRKEHIRESMKKLLGPKNSEGLHSARDVPVVAILGSGGGFRAMVGFSGVMKALYESGILDCATYVAGLSGSTWYMSTLYSHPDFPEKGPEEINEELMKNVSHNPLLLLTPQKVKRYVESLWKKKSSGQPVTFTDIFGMLIGETLIHNRMNTTLSSLKEKVNTAQCPLPLFTCLHVKPDVSELMFADWVEFSPYEIGMAKYGTFMAPDLFGSKFFMGTVVKKYEENPLHFLMGVWGSAFSILFNRVLGVSGSQSRGSTMEEELENITTKHIVSNDSSDSDDESHEPKGTENEDAGSDYQSDNQASWIHRMIMALVSDSALFNTREGRAGKVHNFMLGLNLNTSYPLSPLSDFATQDSFDDDELDAAVADPDEFERIYEPLDVKSKKIHVVDSGLTFNLPYPLILRPQRGVDLIISFDFSARPSDSSPPFKELLLAEKWAKMNKLPFPKIDPYVFDREGLKECYVFKPKNPDMEKDCPTIIHFVLANINFRKYRAPGVPRETEEEKEIADFDIFDDPESPFSTFNFQYPNQAFKRLHDLMHFNTLNNIDVIKEAMVESIEYRRQNPSRCSVSLSNVEARRFFNKEFLSKPKA
[2]; FIG. 2, thiosubstrate assay, listed as cytosolic phospholipase A2
  range of enzyme amount with linear activity: 0.05 to 1.0 µg
